Converted amounts (≈) assume the structure as drawn.
Conditions: buffer; pH 7.4; 200.0 µM

Structure (SMILES) | solubility kinetic
Clc1cccc(C2Nc3cccc4cccc(c34)N2)c1 | 5.3 µg/mL (≈ 18.9 µM)
CCN(CC)c1cc(Cl)nc(N)n1 | 25.9 µg/mL (≈ 129 µM)
CCN(CC(=O)NC1CCS(=O)(=O)C1)c1ccc(S(=O)(=O)N(CC)CC)cc1[N+](=O)[O-] (stereo not given) | > 71.5 µg/mL
O=C(Nc1ccccc1)OCc1cnc(Cl)s1 | 36.7 µg/mL (≈ 137 µM)
CCOc1cc(C(=O)OCc2cc(=O)n3c(C)csc3n2)ccc1OC | 3.1 µg/mL (≈ 8.28 µM)
Clc1ccc(-c2noc(/C=C/c3ccccc3)n2)cc1 | < 0.3 µg/mL
CCOC(=O)c1ccc(NC(=O)CSCCC(=O)O)cc1 | 45.1 µg/mL (≈ 145 µM)
CCC1C(C#N)=C(N)Oc2c1c(=O)oc1ccccc21 (stereo not given) | 8.6 µg/mL (≈ 32.1 µM)
O=C1CSC(c2cccnc2)N1c1ccccc1 (stereo not given) | > 38.4 µg/mL
CC(C)CNc1nc(N)c([N+](=O)[O-])c(NCc2ccccc2)n1 | < 0.1 µg/mL
CC(=O)N1CCOCCOCCN(C(C)=O)CCOCC1 | > 45.4 µg/mL
Cc1noc(C)c1S(=O)(=O)Nc1cccc(C(F)(F)F)c1 | > 48 µg/mL
O=c1[nH]c(=S)[nH]c2c1CN(Cc1ccc(F)cc1)CC2 | 28.6 µg/mL (≈ 98.2 µM)
CN(C(=O)CSc1nc2ccccc2c(=O)n1C)C1CCS(=O)(=O)C1 (stereo not given) | > 57.2 µg/mL
C=CCNC(=O)c1cc(-c2ccncc2)nc2c(C)cc(C)cc12 | 2 µg/mL (≈ 6.3 µM)
O=C(CN1C(=O)NC2(CCCCC2)C1=O)NCCc1ccc(Cl)cc1Cl | > 59.7 µg/mL
O=C1c2cc([N+](=O)[O-])ccc2-c2ncccc21 | 7.4 µg/mL (≈ 32.7 µM)
COc1cccc(-c2nc(NC3CCCC3)c3ccccc3n2)c1O | < 0.2 µg/mL
Cc1cc(C)c(NC(=O)Nc2ccccc2C)c(Cl)c1 | 0.8 µg/mL (≈ 2.77 µM)
OC1(C#CCN2CCCC2)c2ccccc2-c2ccccc21 | 11.4 µg/mL (≈ 39.4 µM)
C=CCOc1ccccc1CNCc1ccc(F)cc1.Cl | > 46.2 µg/mL
COc1ccc2cc(C(=O)O)n(CC(=O)c3ccccc3)c2c1 | > 46.4 µg/mL
CC(=O)C1C(=O)c2c(cccc2[N+](=O)[O-])C1=Nc1cccc(Cl)c1 (stereo not given) | 1.6 µg/mL (≈ 4.67 µM)
Cc1ccc(C(=O)OCC(=O)NCc2ccc3c(c2)OCO3)o1 | > 47.6 µg/mL

Structure (SMILES) | solubility kinetic
O=C(COC(=O)c1cc(=O)[nH]c2ccccc12)Nc1ccc(F)cc1 | 15.4 µg/mL (≈ 45.3 µM)
Brc1ccc(CN2CCN(c3ccccc3)CC2)o1 | 22.5 µg/mL (≈ 70 µM)
Cc1nnc(SCC(=O)N(C)C2CCCCC2)n1C | > 42.4 µg/mL
CN1CCCN(C(=O)COc2ccc(F)cc2Cl)CC1 | > 45.1 µg/mL
O=C(Nc1nccs1)c1ccc2ccccc2c1 | 1.3 µg/mL (≈ 5.11 µM)
Nc1ccc(C2(c3ccc(N)cc3)CCCCC2)cc1 | 36 µg/mL (≈ 135 µM)
CCOc1ccc(CCNC(=O)C2(c3ccccc3)CC2)cc1OCC | > 53 µg/mL
COc1cc(S(=O)(=O)N2CCOCC2)ccc1NC(=O)COC(=O)c1cc(OC)c(OC)c(OC)c1 | 4.5 µg/mL (≈ 8.58 µM)
O=C(/C=C/c1ccc2c(c1)OCO2)NCC1CCCO1 (stereo not given) | > 41.3 µg/mL
CCOc1ccccc1NC(=O)CN1C(=O)COc2ccccc21 | 3.6 µg/mL (≈ 11 µM)
N#Cc1cccnc1N1CCN(C(=O)c2cccs2)CC1 | > 44.8 µg/mL
Cc1ccc2c(c1)C(c1ccccc1)=NCC(=O)N2 | > 37.5 µg/mL
CC(=O)Nc1ccc(C(=O)N2CCCc3ccccc32)cc1 | > 44.2 µg/mL
COc1ccc(CCC(=O)Nc2nc(C)c(C(=O)N(C)C)s2)cc1 | 41.3 µg/mL (≈ 119 µM)
S=C(/N=c1/sccn1Cc1ccccc1)NC1CC1 | 5.4 µg/mL (≈ 18.7 µM)
N#CCC(=O)Nc1ccc(C(=O)Nc2cccc(S(N)(=O)=O)c2)cc1 | 46.2 µg/mL (≈ 129 µM)
O=C(Nc1ccc(Br)cc1)N1CCCCCC1 | 7.6 µg/mL (≈ 25.6 µM)
Cc1ccc(C2C(=O)NC(=O)NC2=O)cc1 | 27.7 µg/mL (≈ 127 µM)
COc1ccc2cc(S(=O)(=O)NCc3cccnc3)ccc2c1 | 13.8 µg/mL (≈ 42 µM)
CC1CCCC(NC(=O)COC(=O)c2cc3ccccc3oc2=O)C1C (stereo not given) | 33.3 µg/mL (≈ 93.2 µM)
CCOC(=O)N1CCN(C/C(Cl)=C/c2ccccc2)CC1 | 29.8 µg/mL (≈ 96.5 µM)
Cc1ccc(NC(=O)Nc2cccc(C)n2)cc1 | 0.8 µg/mL (≈ 3.32 µM)
Cc1cc(C)cc(C(=O)NCC(=O)OCC(=O)NC2CCCc3ccccc32)c1 (stereo not given) | 8.4 µg/mL (≈ 21.3 µM)
Cn1ccnc1CC(O)(c1ccccc1)c1ccccc1 | 20.4 µg/mL (≈ 73.3 µM)

Structure (SMILES) | solubility kinetic
CC(C)(C)n1cnc2cc(NC(=O)c3ccco3)ccc21 | 41.1 µg/mL (≈ 145 µM)
Cc1noc(C)c1COC(=O)c1csc2c1CCC(C)C2 (stereo not given) | 1.4 µg/mL (≈ 4.58 µM)
O=C(O)c1cc([N+](=O)[O-])ccc1NCCc1ccccc1 | > 42.9 µg/mL
CCN(CC)C(=O)Cc1c(OC)ccc2cc(Br)ccc12 | 17.7 µg/mL (≈ 50.5 µM)
CCS(=O)(=O)N1CCN(c2ccnc3cc(Cl)ccc23)CC1 | > 51 µg/mL
CCc1ccc(/C=C2/SC(N3CCOCC3)=NC2=O)cc1 | 26.5 µg/mL (≈ 87.6 µM)
CN(Cc1cnccn1)Cc1nc(Cc2cccc(F)c2)no1 | 46.3 µg/mL (≈ 148 µM)
COc1ccccc1N(CC(=O)Nc1ccc(C)cc1Cl)S(=O)(=O)c1cccs1 | 6.9 µg/mL (≈ 15.3 µM)
COc1ccc(NC(=O)c2cc(C)cc(C)c2)cc1[N+](=O)[O-] | < 0.3 µg/mL
CN(CC(=O)Nc1cccc(F)c1)CC(=O)Nc1ccccc1[N+](=O)[O-] | 49.7 µg/mL (≈ 138 µM)
CCOC(=O)C1CCN(c2ccc([N+](=O)[O-])c(C(C)=O)c2)CC1 | > 48.1 µg/mL
CCCC(=O)Nc1cc(C(F)(F)F)ccc1N1CCOCC1 | 44.6 µg/mL (≈ 141 µM)
CN(CC(=O)NCC1COc2ccccc2O1)S(=O)(=O)c1ccc(Cl)cc1 (stereo not given) | 17.9 µg/mL (≈ 43.6 µM)
O=[N+]([O-])c1ccc(O)c(Nc2ncnc3ccccc23)c1 | 1.4 µg/mL (≈ 4.96 µM)
CCCCCCCN=C(C)c1ccccc1O | 13.9 µg/mL (≈ 59.6 µM)
Cc1cc(C)nc(SCC(=O)N/N=C/c2cccnc2)n1 | > 45.2 µg/mL
CCOc1ccc(S(=O)(=O)NC(Cc2cnc[nH]2)C(=O)O)cc1 (stereo not given) | 25.8 µg/mL (≈ 76 µM)
S=c1[nH]nc(-c2ccco2)n1-c1ccc(Cl)cc1 | > 41.7 µg/mL
Cc1[nH]c2ccccc2c1CCNC(=O)c1c(N)no[n+]1[O-] | 31.3 µg/mL (≈ 104 µM)
CCOC(=O)NC(=S)Nc1c(C)n(C)n(-c2ccccc2)c1=O | > 50.2 µg/mL
CC(OC(=O)c1ccccn1)C(=O)Nc1nc(-c2ccc(F)c(F)c2)cs1 (stereo not given) | 7.9 µg/mL (≈ 20.3 µM)
CC(Cc1ccccc1)NC(=O)CC(c1ccccc1)c1ccccc1O (stereo not given) | 10.8 µg/mL (≈ 30 µM)
O=C(NCc1ccco1)C(=O)NCC(c1ccco1)N1CCOCC1 (stereo not given) | 47.2 µg/mL (≈ 136 µM)
Cl.N=C(c1ccc([N+](=O)[O-])cc1)N1CCCCCC1 | > 42.6 µg/mL

Structure (SMILES) | solubility kinetic
CCOc1ccc2oc(C(=O)NCC(C)(C)CN(C)C)c(C)c2c1.Cl | 48.4 µg/mL
CN1CCN(c2nc(-c3cccc([N+](=O)[O-])c3)nc3ccccc23)CC1 | 8.5 µg/mL (≈ 24.3 µM)
C=CCCOc1ccccc1C(N)=O | 25.8 µg/mL (≈ 135 µM)
CCN(CC)CCNC(=O)COc1ccc(OC)cc1 | 32 µg/mL (≈ 114 µM)
N#Cc1ccccc1OCC(=O)OCC(=O)NC1CCCCCC1 | > 49.6 µg/mL
O=C(/C=C/c1ccco1)N(Cc1ccccc1)C1CCS(=O)(=O)C1 (stereo not given) | 47.1 µg/mL (≈ 136 µM)
COc1ccccc1NS(=O)(=O)c1ccc(C(=O)N2CCCCCC2)cc1 | > 58.3 µg/mL
CCC(C(=O)OCC(=O)NCc1ccc2c(c1)OCO2)c1ccccc1 (stereo not given) | 46 µg/mL (≈ 129 µM)
O=C(COC(=O)c1cc(=O)[nH]c(=O)[nH]1)Nc1ccccc1F | > 46.1 µg/mL
CN1CCN(c2ncnc(Cl)c2N)CC1 | > 34.2 µg/mL
Cl.O=C(O)C1CCN(Cc2cccnc2)CC1 | > 38.5 µg/mL
CC(NC(=O)c1cc2ccccc2oc1=O)c1ccccc1 (stereo not given) | 3.8 µg/mL (≈ 13 µM)
CC(NC(=O)c1ccco1)c1nc(-c2ccccc2Cl)no1 (stereo not given) | > 47.7 µg/mL
N#Cc1ccc(C(=O)NC2=NCCS2)cc1 | 21.8 µg/mL (≈ 94.3 µM)
CN1CCN(C(=O)c2cc3ccccc3cc2O)CC1 | > 40.5 µg/mL
O=C(NC(=S)Nc1ccccc1O)c1cncc(Br)c1 | 9.4 µg/mL (≈ 26.7 µM)
C[C@H](NC(=O)c1ccco1)C(=O)OCC(=O)N1CC(=O)Nc2ccccc21 | > 55.7 µg/mL
O=C(O)CN1C(=O)NC2(CCOc3ccccc32)C1=O (stereo not given) | > 41.4 µg/mL
COC(=O)c1cc(-n2cccc2)ccc1N1CCOCC1 | 35.6 µg/mL (≈ 124 µM)
COc1ccc(NC(=O)C(Cc2cc(C)cc(C)c2)C(C)C(=O)O)cc1 (stereo not given) | 36.5 µg/mL (≈ 103 µM)
N#Cc1nc(-c2ccc(F)cc2)oc1N1CCC(C(N)=O)CC1 | 12.4 µg/mL (≈ 39.5 µM)
CCOC(=O)/C(C#N)=C\c1cccnc1 | > 30.3 µg/mL
O=C(NC(=S)/C(=C1\CCCCCN1)[N+](=O)[O-])c1ccccc1 | 44.9 µg/mL (≈ 141 µM)
COc1ccc(NC(=O)CSc2nc(C)cs2)c([N+](=O)[O-])c1 | 45.1 µg/mL (≈ 133 µM)

Structure (SMILES) | solubility kinetic
Cc1ccc(NC(=O)C2CC(O)CN2C(=O)OCc2ccccc2)c(C)c1 (stereo not given) | 37.2 µg/mL (≈ 101 µM)
C/C(=N/OC(=O)c1cccc(C(F)(F)F)c1)c1cnccn1 | 3.5 µg/mL (≈ 11.3 µM)
CC1CN(c2ccc([N+](=O)[O-])cc2Cl)CCN1S(C)(=O)=O (stereo not given) | > 50.1 µg/mL
COc1ccccc1NC(=O)Nc1cccc(C)n1 | 0.4 µg/mL (≈ 1.55 µM)
Cc1ccnc(NC(=O)COc2ccc(Cl)cc2)n1 | 9.7 µg/mL (≈ 34.9 µM)
CCC(C(=O)Nc1ccc(C)cc1)c1ccccc1 (stereo not given) | < 0.5 µg/mL
NC(=O)COc1ccccc1 | 21 µg/mL (≈ 139 µM)
COc1ccccc1NC(=O)C1CC(C(C)C)OC1=O (stereo not given) | 38.3 µg/mL (≈ 138 µM)
C/C=C/c1ccc(OCc2cc(=O)n3cc(C)ccc3n2)c(OC)c1 | 9.1 µg/mL (≈ 27.1 µM)
Cc1cc(NC(=O)c2c(-c3c(F)cccc3Cl)noc2C)no1 | > 50.4 µg/mL
CC1CCCCC1NC(=S)NC(=O)c1cccs1 (stereo not given) | 5.5 µg/mL (≈ 19.5 µM)
Cc1cccc(C)c1NC(=S)N(CCN(C)C)C(C)c1ccccn1 (stereo not given) | > 53.5 µg/mL
COc1cccc(C(O)Cc2nc3ccccc3n2C)c1OC (stereo not given) | > 46.9 µg/mL
CCc1cccc(NC(=O)COC(=O)/C=C/c2cccs2)c1 | 8.2 µg/mL (≈ 26 µM)
O=C1c2ccccc2C(=O)N1CCc1ccccc1 | 7.8 µg/mL (≈ 31 µM)
COC(=O)CNC(=O)c1ccc(F)cc1 | 27.1 µg/mL (≈ 128 µM)
Cc1ccc(NCc2nc3ccccc3n2C)c(C)c1 | 32.1 µg/mL (≈ 121 µM)
Cc1ccnc(N(C(=O)Nc2ccccc2)C2=NCC(C)(C)S2)c1 | 25.3 µg/mL (≈ 74.3 µM)
COc1ccc(C(=O)n2cnc3ccccc32)cc1[N+](=O)[O-] | 29.4 µg/mL (≈ 98.9 µM)
CCOc1cccc(CNc2nnnn2C)c1 | > 35 µg/mL
CC(C)CNC(=O)CN1c2cccc3cccc(c23)S1(=O)=O | > 47.8 µg/mL
O=C(COc1ccccc1Br)NC1CC1 | > 40.5 µg/mL
O=C(CC1CCCCC1)NCc1ccc(F)cc1 | 20.7 µg/mL (≈ 83 µM)
COc1ccc(C(=O)N[C@H](C(=O)NC2CCCCC2)C(C)C)cc1 | 5.1 µg/mL (≈ 15.3 µM)

From PubChem BioAssay AID1996
